Measurements from paper PMC6627609, “Targeting Quorum Sensing: High-Throughput Screening to Identify Novel LsrK Inhibitors” (International Journal of Molecular Sciences, 2019).
Structures can show the parent of a compound that is named as a salt.

Target: LsrK (Salmonella typhimurium, UniProt Q8ZKQ6)
Experiment: biochemical
Type: biochemical, S. typhimurium
Conditions: for Inhibition (%): 50 µM

Sequence of LsrK (Q8ZKQ6 whole entry): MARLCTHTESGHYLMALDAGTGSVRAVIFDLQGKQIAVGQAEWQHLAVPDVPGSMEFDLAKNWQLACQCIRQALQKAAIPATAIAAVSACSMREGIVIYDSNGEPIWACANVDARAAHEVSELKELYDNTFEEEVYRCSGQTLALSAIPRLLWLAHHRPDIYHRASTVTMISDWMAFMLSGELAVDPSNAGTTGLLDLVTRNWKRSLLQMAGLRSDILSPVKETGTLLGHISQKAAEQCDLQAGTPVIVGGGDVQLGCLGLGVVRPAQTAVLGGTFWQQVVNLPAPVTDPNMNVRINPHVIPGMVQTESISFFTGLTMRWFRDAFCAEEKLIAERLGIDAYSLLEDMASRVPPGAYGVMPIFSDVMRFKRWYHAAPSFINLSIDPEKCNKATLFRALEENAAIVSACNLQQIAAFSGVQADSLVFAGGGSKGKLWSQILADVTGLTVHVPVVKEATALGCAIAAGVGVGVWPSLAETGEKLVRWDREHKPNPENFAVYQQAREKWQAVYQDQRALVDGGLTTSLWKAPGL

Compound	inhibition at 50 µM	Inhibition (%)
CC(C(=O)O)c1ccc2c(c1)[nH]c1ccc(Cl)cc12 (stereo not drawn) [CARPROFEN]	1%	
NCCCNCCCCNCCCN [SPERMINE]	2%	
HECOGENIN		2
CC[N+](C)(C)c1cccc(O)c1 [EDROPHONIUM CHLORIDE]	0%	
C[C@@](Cc1ccc(O)c(O)c1)(NN)C(=O)O [CARBIDOPA]	0%	
CC(C)[C@@H](C)/C=C/[C@@H](C)[C@H]1CC[C@H]2C3=CC=C4C[C@@H](O)CC[C@]4(C)[C@H]3CC[C@]12C [ERGOSTEROL]	0%	
Cc1c(Cl)cccc1Nc1ccccc1C(=O)O [TOLFENAMIC ACID]	97%	
Cc1cn([C@H]2C[C@H](N=[N+]=[N-])[C@@H](CO)O2)c(=O)[nH]c1=O [ZIDOVUDINE [AZT], ZIDOVUDINE]	36%	
CCCC1O[C@@H]2C[C@H]3[C@@H]4CCC5=CC(=O)C=C[C@]5(C)[C@H]4[C@@H](O)C[C@]3(C)[C@]2(C(=O)CO)O1 (stereo partly drawn) [BUDESONIDE]	2%	
NS(=O)(=O)c1cc2c(cc1Cl)N=CNS2(=O)=O [CHLOROTHIAZIDE]	0%	
C1CCc2nnnn2CC1 [PENTYLENETETRAZOL]	0%	
O=C1c2ccccc2C(=O)c2c(O)c(O)cc(O)c21 [PURPURIN]	45%	
COC1=CC(=O)C[C@@H](C)[C@]12Oc1c(Cl)c(OC)cc(OC)c1C2=O [GRISEOFULVIN]	1%	
CC1(C)[C@@H](O)CC[C@]2(C)[C@H]3C(=O)C=C4[C@@H]5C[C@@](C)(C(=O)O)CC[C@]5(C)CC[C@@]4(C)[C@]3(C)CC[C@@H]12 [ENOXOLONE]	2%	
Cc1cc(C(C)(C)C)cc(C)c1CC1=NCCN1 [XYLOMETAZOLINE HYDROCHLORIDE]	1%	
CO/N=C(\C(=O)N[C@@H]1C(=O)N2C(C(=O)O)=C(COC(N)=O)CS[C@H]12)c1ccco1 [CEFUROXIME SODIUM]	3%	
C=C(C)[C@H]1Cc2c(ccc3c(=O)c4c(oc23)COc2cc(OC)c(OC)cc2-4)O1 [DEHYDROROTENONE]	1%	
CC(C)n1c(/C=C/C(O)CC(O)CC(=O)O)c(-c2ccc(F)cc2)c2ccccc21 (stereo not drawn) [FLUVASTATIN]	6%	
CCN1CCN(c2cc3c(cc2F)c(=O)c(C(=O)O)cn3C2CC2)CC1 [ENROFLOXACIN]	1%	
C[C@@H]1O[C@@H](O[C@H]2CC[C@]3(C=O)[C@H]4CC[C@]5(C)[C@@H](C6=CC(=O)OC6)CC[C@]5(O)[C@@H]4CC[C@]3(O)C2)[C@H](O)[C@H](O)[C@H]1O [CONVALLATOXIN]	1%	
Cl.N=C(N)NCCC[C@H](N)C(=O)O [ARGININE HYDROCHLORIDE]		1
O=[N+]([O-])c1cccc2cn[nH]c12 [7-NITROINDAZOLE]	1%	
C[C@H](CCC(=O)O)[C@H]1CC[C@H]2[C@@H]3C(=O)C[C@@H]4CC(=O)CC[C@]4(C)[C@H]3CC(=O)[C@]12C [DEHYDROCHOLIC ACID]	4%	
C=CC(C1=CC(=O)C=CC1=O)c1ccccc1 (stereo not drawn) [DALBERGIONE]	91%	
COc1ccc2c(c1)OC[C@@H](Cc1ccc(OC)c(OC)c1)[C@H]2O	2%	
O=C1C=C2CC3(O)COc4cc(O)ccc4C3=C2C=C1O (stereo not drawn) [BRAZILEIN]	66%	

Compound	inhibition at 50 µM	Inhibition (%)
CC(=O)Oc1cccc2c1C(=O)c1c(OC(C)=O)cc(C(=O)O)cc1C2=O [DIACERIN]		0
Nc1nc2c(ncn2COCCO)c(=O)[nH]1 [ACYCLOVIR]	8%	
CC(=O)Oc1ccc(/C=C/c2cc(OC(C)=O)cc(OC(C)=O)c2)cc1 [TRIACETYLRESVERATROL]	1%	
CNc1ccccc1C(=O)O	1%	
CC(=O)O[C@@H]1CC2C(C)(C)C(=O)C3OC3[C@]2(C)C2CC[C@@]3(C)[C@H](c4ccoc4)OC(=O)C4OC43[C@@]21C (stereo partly drawn) [EPOXYGEDUNIN]		0
COc1c2c(cc3occ(-c4ccc5c(c4)OCO5)c(=O)c13)OC(C)(C)C=C2 [METHYL ROBUSTONE]	1%	
CS(=O)(=O)c1ccc([C@@H](O)[C@@H](CF)NC(=O)C(Cl)Cl)cc1 [FLORFENICOL]	2%	
CC[N+](CC)(CC(=O)Nc1c(C)cccc1C)Cc1ccccc1 [DENATONIUM BENZOATE]	1%	
C[N+](C)(CCOc1ccccc1)Cc1ccccc1.O=C([O-])c1cc2ccccc2cc1O [BEPHENIUM HYDROXYNAPTHOATE]		1
C#C[C@]1(O)CC[C@H]2[C@@H]3CCC4=C(CCC(=O)C4)[C@H]3CC[C@@]21C [NORETHYNODREL]	1%	
COc1cc(-c2coc3cc(OCc4ccccc4)c(OC)c(O)c3c2=O)cc(O)c1OC [IRIGENIN. 7-BENZYL ETHER]		2
O=C(NC(=O)c1c(F)cccc1F)Nc1cc(Cl)c(OC(F)(F)C(F)C(F)(F)F)cc1Cl (stereo not drawn) [LUFENURON]	2%	
CCCCOC(=O)c1ccccc1C(=O)OCCCC [DIBUTYL PHTHALATE]	0%	
NC(=O)c1ncn([C@@H]2O[C@H](CO)[C@@H](O)[C@H]2O)n1 [RIBAVIRIN]	5%	
C=CCCCCCCCCCCCc1ccco1 [AVOCADENOFURAN]		2
CCOc1ccc2nc3cc(N)ccc3c(N)c2c1 [ETHACRIDINE LACTATE]	1%	
COC(=O)c1c(C)cc(OC(=O)c2c(C)cc(O)c(C=O)c2O)c(C)c1O [ATRANORIN]	0%	
CCC1(CC)C(=O)NC(=O)NC1=O [BARBITAL]	1%	
COc1ccc(C[C@H](N)C(=O)N[C@H]2[C@@H](O)[C@H](n3cnc4c(N(C)C)ncnc43)O[C@@H]2CO)cc1 [PUROMYCIN HYDROCHLORIDE]	0%	
COc1ccc2c(c1)OC1(O)COc3cc(OC)c(OC)cc3C1=C2 (stereo not drawn) [12a-HYDROXY-5-DEOXYDEHYDROMUNDUSERONE]	0%	
COc1ccc2[nH]c3c(c2c1)CCN=C3C [6-METHOXYHARMALAN]		2
Nc1ncnc2c1ncn2[C@@H]1O[C@H](CO)[C@@H](O)[C@@H]1O [VIDARABINE]	0%	
C#CCCCCCCCCCCCC(O)CC(O)COC(C)=O (stereo not drawn) [AVOCADYNE ACETATE]	1%	
O=C(/C=C/c1ccccc1)c1ccc(O)cc1 [4'-HYDROXYCHALCONE]	38%	
COc1ccc(-c2cc(=O)c3cc(OC)ccc3o2)cc1 [6.4'-DIMETHOXYFLAVONE]		2
COc1ccc(C(=O)/C=C/c2ccccc2)cc1 [4'-METHOXYCHALCONE]	12%	

Compound	inhibition at 50 µM	Inhibition (%)
CC(=O)OCC1=C(C(=O)[O-])N2C(=O)[C@@H](NC(=O)CCCC(N)C(=O)O)[C@H]2SC1.[Na+] (stereo partly drawn) [CEPHALOSPORIN C SODIUM]		32
C[C@H](CCC(=O)O)[C@H]1CC[C@H]2[C@@H]3[C@H](O)C[C@@H]4C[C@H](O)CC[C@]4(C)[C@H]3C[C@H](O)[C@]12C [CHOLIC ACID]	0%	
POLYMYXIN B SULFATE		48
Cc1cc(O)c2c(c1)C(=O)c1cccc(O)c1C2=O [CHRYSOPHANOL]	1%	
C[C@]12C=CC(=O)C=C1CC[C@@H]1[C@@H]2[C@@H](O)C[C@@]2(C)[C@H]1CC[C@]2(O)C(=O)COP(=O)([O-])[O-].[Na+].[Na+] [PREDNISOLONE SODIUM PHOSPHATE]		0
c1ccc2[nH]c(-c3cscn3)nc2c1 [THIABENDAZOLE]	5%	
COc1ccc2cc3[n+](cc2c1OC)CCc1cc2c(cc1-3)OCO2 [BERBERINE CHLORIDE]	1%	
CN1CC(=O)N2[C@H](c3ccc4c(c3)OCO4)c3[nH]c4ccccc4c3C[C@@H]2C1=O	1%	
O=C1CCO1 [BETA-PROPIOLACTONE]		0
CC(C)CCC[C@@H](C)[C@H]1CC[C@H]2[C@@H]3CC=C4C[C@@H](O)CC[C@]4(C)[C@H]3CC[C@]12C [CHOLESTEROL]	0%	
CO/N=C(\C(=O)N[C@@H]1C(=O)N2C(C(=O)O)=C(COC(C)=O)CS[C@H]12)c1csc(N)n1 [CEFOTAXIME SODIUM]	32%	
O=c1cccc2n1C[C@@H]1C[C@H]2CN2CCCC[C@H]12.[O-][Cl+3]([O-])([O-])O [THERMOPSINE PERCHLORATE]		0
CC(=O)OCC1=C(C(=O)O)N2C(=O)[C@@H](N)[C@H]2SC1 [7-AMINOCEPHALOSPORANIC ACID]		64
O=c1cc(-c2ccccc2)oc2cc(O)c(O)c(O)c12 [BAICALEIN]	2%	
COc1ccc(CC(=O)c2ccc(O)cc2O)cc1 [ONONETIN]	5%	
Cc1ccc(/N=C/N(C)/C=N/c2ccc(C)cc2C)c(C)c1 [AMITRAZ]	1%	
CC1=C(/C=C/C(C)=C/C=C/C(C)=C/C=C/C=C(C)/C=C/C=C(C)/C=C/C2=C(C)C(=O)[C@@H](O)CC2(C)C)C(C)(C)C[C@H](O)C1=O [ASTAXANTHIN]	1%	
O=[N+]([O-])c1ccc(O)c([N+](=O)[O-])c1 [2.4-DINITROPHENOL]		4
CC[C@@]1(O)C[C@H](O[C@H]2C[C@H](N(C)C)[C@H](O)[C@H](C)O2)c2c(cc3c(c2O)C(=O)c2c(O)ccc(O)c2C3=O)[C@H]1C(=O)OC [PYRROMYCIN]	1%	
Cc1cc(=O)oc2cc(O)c(O)cc12 [4-METHYLESCULETIN]	2%	
O=C(CCCN1CCC(O)(c2ccc(Br)cc2)CC1)c1ccc(F)cc1 [BROMPERIDOL]	1%	
O=C1OC(c2ccc(O)cc2)(c2ccc(O)cc2)c2ccccc21 [PHENOLPHTHALEIN]	0%	
C=C(C)CCCC(C)CCOC(C)=O (stereo not drawn) [RHODINYL ACETATE]		0
CNCC[C@H](Oc1cccc2ccccc12)c1cccs1 [DULOXETINE HYDROCHLORIDE]	1%	
C[C@@H]1O[C@@H](O[C@H]2[C@H](Oc3cc(O)c4c(=O)cc(-c5ccc(O)cc5)oc4c3)O[C@H](CO)[C@@H](O)[C@@H]2O)[C@H](O)[C@H](O)[C@H]1O [RHOIFOLIN]	2%	
CCN(CCCCOC(=O)c1ccc(OC)c(OC)c1)C(C)Cc1ccc(OC)cc1 (stereo not drawn) [MEBEVERINE HYDROCHLORIDE]	1%	
